Experiments:
Type in all cases: in vivo
[1] = system: Johnsongrass (Sorghum halepense, SORHA); experiment: Pre-emerge greenhouse herbicide test, phytotoxicity rating; settings: 14 days after application, rating scale 0-100
Summary of the method: (§1)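 Seeds sown in sandy loam mix one day before track-sprayer application of compounds in acetone at 125–1000 g ai/ha (187 l/ha), then surface-watered to incorporate and bottom-watered. Visual rating 14 days after application on a 0–100 scale (0 = no damage, 100 = all plants dead).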

[2] = system: barnyardgrass (Echinochloa crusgalli, ECHCG); experiment: as above; settings: 14 days after application, rating scale 0-100
Summary of the method: as §1

[3] = system: common ragweed (Ambrosia artemisiifolia L., AMBEL); experiment: as above; settings: 14 days after application, rating scale 0-100
Summary of the method: as §1

[4] = system: green foxtail (Setaria viridis, SETVI); experiment: as above; settings: 14 days after application, rating scale 0-100
Summary of the method: as §1

[5] = system: ivyleaf morningglory (Ipomoea hederacea, IPOHE); experiment: as above; settings: 14 days after application, rating scale 0-100
Summary of the method: as §1

[6] = system: lambsquarters (Chenopodium album, CHEAL); experiment: as above; settings: 14 days after application, rating scale 0-100
Summary of the method: as §1

[7] = system: large crabgrass (Digitaria sanguinalis, DIGSA); experiment: as above; settings: 14 days after application, rating scale 0-100
Summary of the method: as §1

[8] = system: redroot pigweed (Amaranthus retroflexus, AMARE); experiment: as above; settings: 14 days after application, rating scale 0-100
Summary of the method: as §1

[9] = system: sicklepod (Cassia obtusifolia, CASOB); experiment: as above; settings: 14 days after application, rating scale 0-100
Summary of the method: as §1

[10] = system: velvetleaf (Abutilon theophrasti, ABUTH); experiment: as above; settings: 14 days after application, rating scale 0-100
Summary of the method: as §1

[11] = system: field corn (Zea mays L., var. Dekalb 535, CORN); experiment: Pre-emerge greenhouse test, crop damage rating; settings: 14 days after application, rating scale 0-100
Summary of the method: as §1

[12] = system: upland rice (Oryza sp., var.Tebonnet, RICE); experiment: Pre-emerge greenhouse test, crop damage rating; settings: 14 days after application, rating scale 0-100
Summary of the method: as §1

[13] = system: soybean (Glycine max L., var. Pella 86, SOY); experiment: Pre-emerge greenhouse test, crop damage rating; parameters: key to SOY crop damage rating: 0 = no damage, 100 = complete death of all plants; settings: 14 days after application, rating scale 0-100
Summary of the method: as §1

[14] = system: common ragweed (Ambrosia artemisiifolia L., AMBEL); experiment: Post-emerge greenhouse herbicide test, phytotoxicity rating; settings: 14 days after application, scale 0-100
Summary of the method: (§2)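 Compounds in acetone with 0.25% v/v non-ionic surfactant were track-sprayed at 187 l/ha over plants at the 2-3 leaf stage, at 63 to 1000 g ai/ha. Pots were bottom-watered. Injury was scored visually 14 days later on a 0-100 scale, where 0 is no damage and 100 is complete plant death.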

[15] = system: Johnsongrass (Sorghum halepense, SORHA); experiment: as above; settings: 14 days after application, scale 0-100
Summary of the method: as §2

[16] = system: barnyardgrass (Echinochloa crusgalli, ECHCG); experiment: as above; settings: 14 days after application, scale 0-100
Summary of the method: as §2

[17] = system: green foxtail (Setaria viridis, SETVI); experiment: as above; settings: 14 days after application, scale 0-100
Summary of the method: as §2

[18] = system: ivyleaf morningglory (Ipomoea hederacea, IPOHE); experiment: as above; settings: 14 days after application, scale 0-100
Summary of the method: as §2

[19] = system: lambsquarters (Chenopodium album, CHEAL); experiment: as above; settings: 14 days after application, scale 0-100
Summary of the method: as §2

[20] = system: large crabgrass (Digitaria sanguinalis, DIGSA); experiment: as above; settings: 14 days after application, scale 0-100
Summary of the method: as §2

[21] = system: redroot pigweed (Amaranthus retroflexus, AMARE); experiment: as above; settings: 14 days after application, scale 0-100
Summary of the method: as §2

[22] = system: sicklepod (Cassia obtusifolia, CASOB); experiment: as above; settings: 14 days after application, scale 0-100
Summary of the method: as §2

[23] = system: velvetleaf (Abutilon theophrasti, ABUTH); experiment: as above; settings: 14 days after application, scale 0-100
Summary of the method: as §2

[24] = system: field corn (Zea mays L., var. Dekalb 535, CORN); experiment: Post-emerge greenhouse test, crop damage rating; settings: 14 days after application, scale 0-100
Summary of the method: as §2

[25] = system: upland rice (Oryza sp., var.Tebonnet, RICE); experiment: Post-emerge greenhouse test, crop damage rating; settings: 14 days after application, scale 0-100
Summary of the method: as §2

[26] = system: soybean (Glycine max L., var. Pella 86, SOY); experiment: Post-emerge greenhouse test, crop damage rating; parameters: key to crop damage rating SOY: 0-100 scale: 0 = no damage, 100 = complete death of all plants; settings: 14 days after application, scale 0-100
Summary of the method: as §2

Q: With `COc1nc(OC)nc(Oc2cc(-n3c(=O)n4n(c3=S)CCCC4)c(F)cc2Cl)n1` [Compound 8-34] as the compound, how does the SORHA phytotoxicity rating ([1]; Rate 125 g al/ha) read?
A: 20

Q: What about the SORHA phytotoxicity rating ([1]; Rate 500 g al/ha) of the same compound?
A: 80

Q: What about the ECHCG phytotoxicity rating ([2]; Rate 125 g al/ha) of the same compound?
A: 0

Q: And the ECHCG phytotoxicity rating ([2]; Rate 500 g al/ha)?
A: 40

Q: And the AMBEL phytotoxicity rating ([3]; Rate 125 g al/ha)?
A: 40

Q: What about the AMBEL phytotoxicity rating ([3]; Rate 500 g al/ha) of the same compound?
A: 100

Q: What about the SETVI phytotoxicity rating ([4]; Rate 125 g al/ha) of the same compound?
A: 80

Q: And the SETVI phytotoxicity rating ([4]; Rate 500 g al/ha)?
A: 99

Q: What about the IPOHE phytotoxicity rating ([5]; Rate 125 g al/ha) of the same compound?
A: 0

Q: And the IPOHE phytotoxicity rating ([5]; Rate 500 g al/ha)?
A: 80

Q: What about the CHEAL phytotoxicity rating ([6]; Rate 125 g al/ha) of the same compound?
A: 100

Q: What about the CHEAL phytotoxicity rating ([6]; Rate 500 g al/ha) of the same compound?
A: 100

Q: And the DIGSA phytotoxicity rating ([7]; Rate 125 g al/ha)?
A: 10

Q: And the DIGSA phytotoxicity rating ([7]; Rate 500 g al/ha)?
A: 80

Q: And the AMARE phytotoxicity rating ([8]; Rate 125 g al/ha)?
A: 100

Q: What about the AMARE phytotoxicity rating ([8]; Rate 500 g al/ha) of the same compound?
A: 100

Q: And the CASOB phytotoxicity rating ([9]; Rate 125 g al/ha)?
A: 0

Q: And the CASOB phytotoxicity rating ([9]; Rate 500 g al/ha)?
A: 40

Q: What about the ABUTH phytotoxicity rating ([10]; Rate 125 g al/ha) of the same compound?
A: 100

Q: What about the ABUTH phytotoxicity rating ([10]; Rate 500 g al/ha) of the same compound?
A: 100

Q: And the “CORN crop damage rating” value ([11]; Rate 125 g al/ha)?
A: 0

Q: What about the “CORN crop damage rating” value ([11]; Rate 500 g al/ha) of the same compound?
A: 5

Q: What about the “RICE crop damage rating” value ([12]; Rate 125 g al/ha) of the same compound?
A: 20

Q: And the “RICE crop damage rating” value ([12]; Rate 500 g al/ha)?
A: 50

Q: What about the “SOY crop damage rating” value ([13]; Rate 125 g al/ha) of the same compound?
A: 10

Q: And the “SOY crop damage rating” value ([13]; Rate 500 g al/ha)?
A: 0

Q: And the “phytotoxicity rating AMBEL” value ([14]; rate 63 g ai/ha)?
A: 50

Q: What about the “phytotoxicity rating AMBEL” value ([14]; rate 500 g ai/ha) of the same compound?
A: 95

Q: And the “phytotoxicity rating SORHA” value ([15]; rate 63 g ai/ha)?
A: 0

Q: What about the “phytotoxicity rating SORHA” value ([15]; rate 500 g ai/ha) of the same compound?
A: 50

Q: And the “phytotoxicity rating ECHCG” value ([16]; rate 63 g ai/ha)?
A: 10

Q: And the “phytotoxicity rating ECHCG” value ([16]; rate 500 g ai/ha)?
A: 0

Q: What about the “phytotoxicity rating SETVI” value ([17]; rate 63 g ai/ha) of the same compound?
A: 20

Q: And the “phytotoxicity rating SETVI” value ([17]; rate 500 g ai/ha)?
A: 65

Q: And the “phytotoxicity rating IPOHE” value ([18]; rate 63 g ai/ha)?
A: 100

Q: And the “phytotoxicity rating IPOHE” value ([18]; rate 500 g ai/ha)?
A: 100

Q: And the “phytotoxicity rating CHEAL” value ([19]; rate 63 g ai/ha)?
A: 95

Q: And the “phytotoxicity rating CHEAL” value ([19]; rate 500 g ai/ha)?
A: 100

Q: And the “phytotoxicity rating DIGSA” value ([20]; rate 63 g ai/ha)?
A: 0

Q: And the “phytotoxicity rating DIGSA” value ([20]; rate 500 g ai/ha)?
A: 40

Q: What about the “phytotoxicity rating AMARE” value ([21]; rate 63 g ai/ha) of the same compound?
A: 50

Q: And the “phytotoxicity rating AMARE” value ([21]; rate 500 g ai/ha)?
A: 100

Q: And the “phytotoxicity rating CASOB” value ([22]; rate 63 g ai/ha)?
A: 30

Q: What about the “phytotoxicity rating CASOB” value ([22]; rate 500 g ai/ha) of the same compound?
A: 100

Q: And the “phytotoxicity rating ABUTH” value ([23]; rate 63 g ai/ha)?
A: 95

Q: What about the “phytotoxicity rating ABUTH” value ([23]; rate 500 g ai/ha) of the same compound?
A: 100

Q: What about the “crop damage rating CORN” value ([24]; rate 63 g ai/ha) of the same compound?
A: 5

Q: What about the “crop damage rating CORN” value ([24]; rate 500 g ai/ha) of the same compound?
A: 15

Q: What about the “crop damage rating RICE” value ([25]; rate 63 g ai/ha) of the same compound?
A: 0

Q: What about the “crop damage rating RICE” value ([25]; rate 500 g ai/ha) of the same compound?
A: 40

Q: What about the “crop damage rating SOY” value ([26]; rate 63 g ai/ha) of the same compound?
A: 50

Q: What about the “crop damage rating SOY” value ([26]; rate 500 g ai/ha) of the same compound?
A: 90
